Key:
Assay in all cases: relative viability (nuclei count vs DMSO), 5 days (fraction); higher = more cells survive
Ispinesib + Foretinib = compound: Cc1ccc(C(=O)N(CCCN)[C@@H](c2nc3cc(Cl)ccc3c(=O)n2Cc2ccccc2)C(C)C)cc1 [Ispinesib] + COc1cc2c(Oc3ccc(NC(=O)C4(C(=O)Nc5ccc(F)cc5)CC4)cc3F)ccnc2cc1OCCCN1CCOCC1 [Foretinib] (partner 0.25 µM)
In short: (§1)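 Relative viability is defined as nuclei in treated wells over nuclei in vehicle wells. Duplicate plates were run and medians reported. Lung cancer cell lines in 1536-well plates were dosed by pin tool one day after seeding, with one drug or with a fixed anchor-drug dose plus five library-drug doses (not always all listed) in √10 steps, and nuclei were counted after 5 days.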

Linsitinib + Dasatinib = compound: C[C@]1(O)C[C@@H](c2nc(-c3ccc4ccc(-c5ccccc5)nc4c3)c3c(N)nccn32)C1 [Linsitinib] + Cc1nc(Nc2ncc(C(=O)Nc3c(C)cccc3Cl)s2)cc(N2CCN(CCO)CC2)n1 [Dasatinib] (partner 0.075 µM)
In short: as §1

Ispinesib + Palbociclib = compound: Cc1ccc(C(=O)N(CCCN)[C@@H](c2nc3cc(Cl)ccc3c(=O)n2Cc2ccccc2)C(C)C)cc1 [Ispinesib] + CC(=O)c1c(C)c2cnc(Nc3ccc(N4CCNCC4)cn3)nc2n(C2CCCC2)c1=O [Palbociclib] (partner 0.5 µM)
In short: as §1

Ispinesib + Navitoclax = compound: Cc1ccc(C(=O)N(CCCN)[C@@H](c2nc3cc(Cl)ccc3c(=O)n2Cc2ccccc2)C(C)C)cc1 [Ispinesib] + CC1(C)CCC(c2ccc(Cl)cc2)=C(CN2CCN(c3ccc(C(=O)NS(=O)(=O)c4ccc(N[C@H](CCN5CCOCC5)CSc5ccccc5)c(S(=O)(=O)C(F)(F)F)c4)cc3)CC2)C1 [Navitoclax] (partner 0.5 µM)
In short: as §1

| Cell Line | relative viability (Ispinesib + Foretinib; first compound 0.001 µM) | relative viability (Ispinesib + Foretinib; first compound 0.003162 µM) | relative viability (Ispinesib + Foretinib; first compound 0.01 µM) | relative viability (Ispinesib + Foretinib; first compound 0.03162 µM) | relative viability (Ispinesib + Foretinib; first compound 0.1 µM) | relative viability (Linsitinib + Dasatinib; first compound 0.01 µM) | relative viability (Linsitinib + Dasatinib; first compound 0.03162 µM) | relative viability (Linsitinib + Dasatinib; first compound 0.1 µM) | relative viability (Linsitinib + Dasatinib; first compound 0.3162 µM) | relative viability (Linsitinib + Dasatinib; first compound 1 µM) | relative viability (Ispinesib + Palbociclib; first compound 0.001 µM) | relative viability (Ispinesib + Palbociclib; first compound 0.003162 µM) | relative viability (Ispinesib + Palbociclib; first compound 0.01 µM) | relative viability (Ispinesib + Palbociclib; first compound 0.03162 µM) | relative viability (Ispinesib + Palbociclib; first compound 0.1 µM) | relative viability (Ispinesib + Navitoclax; first compound 0.001 µM) | relative viability (Ispinesib + Navitoclax; first compound 0.003162 µM) | relative viability (Ispinesib + Navitoclax; first compound 0.01 µM) | relative viability (Ispinesib + Navitoclax; first compound 0.03162 µM) | relative viability (Ispinesib + Navitoclax; first compound 0.1 µM) |
| --- | --- | --- | --- | --- | --- | --- | --- | --- | --- | --- | --- | --- | --- | --- | --- | --- | --- | --- | --- | --- |
| NCI-H650 | 1.04 | 1.04 | 1.09 | 0.985 | 0.896 | 0.45 | 0.432 | 0.47 | 0.374 | 0.325 | 0.301 | 0.309 | 0.361 | 0.324 | 0.335 |  |  |  |  |  |
| A549 | 1.13 | 1.19 | 1.2 | 0.757 | 0.0545 |  |  |  |  |  |  |  |  |  |  | 1.34 | 1.16 | 1.18 | 0.0508 | 0.0539 |
| NCI-H1563 | 0.895 | 0.879 | 0.984 | 0.845 | 0.798 | 0.47 | 0.485 | 0.384 | 0.812 | 0.378 |  |  |  |  |  |  |  |  |  |  |
| NCI-H1703 | 0.331 | 0.372 | 0.346 | 0.16 | 0.157 |  |  |  |  |  |  |  |  |  |  | 1.2 | 0.727 | 0.117 | 0.0871 | 0.114 |
| NCI-H1299 | 1.14 | 1.13 | 1.14 | 1.09 | 0.584 |  |  |  |  |  |  |  |  |  |  | 1.02 | 1.08 | 1.08 | 1.01 | 0.52 |
| NCI-H661 | 0.943 | 1.03 | 0.988 | 0.71 | 0.27 | 0.899 | 0.815 | 0.946 | 0.722 | 0.768 | 0.398 | 0.4 | 0.406 | 0.282 | 0.248 |  |  |  |  |  |
| NCI-H2342 | 1.16 | 1 | 1 | 1.09 | 0.793 | 0.307 | 0.306 | 0.306 | 0.353 | 0.298 | 0.571 | 0.539 | 0.556 | 0.541 | 0.522 |  |  |  |  |  |
| SW 900 | 0.813 | 0.76 | 0.927 | 0.854 | 0.204 | 0.537 | 0.739 | 0.85 | 0.319 | 0.322 | 0.566 | 0.638 | 0.609 | 0.624 | 0.321 |  |  |  |  |  |
| NCI-H1623 | 0.929 | 1.03 | 0.887 | 0.823 | 0.62 | 0.561 | 0.527 | 0.45 |  | 0.415 |  |  |  |  |  |  |  |  |  |  |
| NCI-H596 | 0.87 | 0.859 | 0.791 | 0.795 | 0.434 | 0.643 | 0.673 | 0.625 | 0.647 | 0.437 |  |  |  |  |  | 0.865 | 0.9 | 1.07 | 1.05 | 0.458 |
